Data published in US7781591B2, “Substituted 3-cyanopyridines as protein kinase inhibitors” (Wyeth LLC, priority 2006, dated 2010).

molecular target: T1, human PKCθ full length enzyme (Homo sapiens, UniProt Q04759); assay: PKCθ IMAP assay (fluorescence polarization); assay type: biochemical; settings: human PKCθ full length enzyme, IMAP; average value; read-out: IC50 PKCθ IMAP
T1 construct: human PKCθ full length enzyme (Panvera Cat# P2996); purchased Panvera P2996
T1 sequence (Q04759 whole entry): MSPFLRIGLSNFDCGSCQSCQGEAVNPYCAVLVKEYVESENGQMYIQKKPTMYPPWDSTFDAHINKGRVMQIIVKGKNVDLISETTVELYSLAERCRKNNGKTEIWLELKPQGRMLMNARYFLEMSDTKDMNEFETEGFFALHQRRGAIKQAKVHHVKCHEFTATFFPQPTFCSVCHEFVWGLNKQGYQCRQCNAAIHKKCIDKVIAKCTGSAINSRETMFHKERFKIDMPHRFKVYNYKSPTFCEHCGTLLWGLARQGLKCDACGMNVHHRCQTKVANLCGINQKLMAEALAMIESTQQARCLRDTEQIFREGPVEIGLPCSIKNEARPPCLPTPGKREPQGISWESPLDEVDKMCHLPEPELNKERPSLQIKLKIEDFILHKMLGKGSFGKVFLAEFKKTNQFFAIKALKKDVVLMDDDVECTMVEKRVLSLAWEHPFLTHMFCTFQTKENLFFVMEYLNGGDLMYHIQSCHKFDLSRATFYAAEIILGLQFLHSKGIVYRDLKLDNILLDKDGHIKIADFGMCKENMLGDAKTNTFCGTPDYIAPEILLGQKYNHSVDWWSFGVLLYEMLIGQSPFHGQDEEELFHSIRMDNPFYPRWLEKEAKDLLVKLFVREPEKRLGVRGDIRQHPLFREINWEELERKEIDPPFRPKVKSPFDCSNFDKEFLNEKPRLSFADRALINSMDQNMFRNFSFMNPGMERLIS

**Q.** `Cc1c(Nc2c(C#N)cncc2-c2cccc(Br)c2)ccc2[nH]ccc12` [Compound 298, 5-(3-bromophenyl)-4-[(4-methyl-1H-indol-5-yl)amino]nicotinonitrile] was tested. Which IC50 did it give?
**A.** 4 nM

**Q.** `COc1ccc(-c2cncc(C#N)c2Nc2cccc3[nH]ccc23)cc1OCCN1CCOCC1` [Compound 299, 4-(1H-indol-4-ylamino)-5-[4-methoxy-3-(2-morpholin-4-ylethoxy)phenyl]nicotinonitrile] was tested. Which IC50 did it give?
**A.** 30 nM

**Q.** How did the IC50 turn out when `COc1ccc(-c2cncc(C#N)c2Nc2cccc3[nH]ccc23)cc1OCCN1CCN(C)CC1` [Compound 300, 4-(1H-indol-4-ylamino)-5-{4-methoxy-3-[2-(4-methylpiperazin-1-yl)ethoxy]phenyl}nicotinonitrile] was run?
**A.** 20 nM

**Q.** `COc1ccc(-c2cncc(C#N)c2Nc2cccc3[nH]ccc23)cc1OCCN(C)C` [Compound 301, 5-{3-[2-(dimethylamino)ethoxy]-4-methoxyphenyl}-4-(1H-indol-4-ylamino)nicotinonitrile] was tested. Which IC50 did it give?
**A.** 50 nM

**Q.** `COc1ccc(-c2cncc(C#N)c2Nc2cccc3[nH]ccc23)cc1OCCN1CCC(O)CC1` [Compound 302, 5-{3-[2-(4-hydroxypiperidin-1-yl)ethoxy]-4-methoxyphenyl}-4-(1H-indol-4-ylamino)nicotinonitrile] was tested. Which IC50 did it give?
**A.** 30 nM

**Q.** Which IC50 does the source give for `COc1ccc(-c2cncc(C#N)c2Nc2cccc3[nH]ccc23)cc1OCCCl` [Compound 303, 5-[3-(2-chloroethoxy)-4-methoxyphenyl]-4-(1H-indol-4-ylamino)nicotinonitrile] here?
**A.** 40 nM

**Q.** How did the IC50 turn out when `Cc1c(Nc2c(C#N)cncc2-c2cccc(-c3cccs3)c2)ccc2[nH]ccc12` [Compound 304, 4-[(4-methyl-1H-indol-5-yl)amino]-5-[3-(2-thienyl)phenyl]nicotinonitrile] was run?
**A.** 110 nM

**Q.** With `CCc1c(Nc2c(C#N)cncc2-c2ccc(OC)c(OC)c2)ccc2[nH]ccc12` [Compound 305, 5-(3,4-dimethoxyphenyl)-4-[(4-ethyl-1H-indol-5-yl)amino]nicotinonitrile] as the molecule, how does the IC50 read?
**A.** 60 nM

**Q.** `Cc1c(Nc2c(C#N)cncc2-c2cccc(-c3ccc(C=O)s3)c2)ccc2[nH]ccc12` [Compound 306, 5-[3-(5-formyl-2-thienyl)phenyl]-4-[(4-methyl-1H-indol-5-yl)amino]nicotinonitrile] was tested. Which IC50 did it give?
**A.** 60 nM

**Q.** For `N#Cc1cncc(-c2cccc(-c3ccc(C(=O)NCCCCO)cc3)c2)c1Nc1cccc2[nH]ccc12` [Compound 308, 3′-[5-cyano-4-(1H-indol-4-ylamino)pyridin-3-yl]-N-(4-hydroxybutyl)biphenyl-4-carboxamide], which IC50 is on record?
**A.** 30 nM

**Q.** How did the IC50 turn out when `Cc1c(Nc2c(C#N)cncc2-c2cccc(-c3ccc(C(=O)NCCCCO)cc3)c2)ccc2[nH]ccc12` [Compound 309, 3′-{5-cyano-4-[(4-methyl-1H-indol-5-yl)amino]pyridin-3-yl}-N-(4-hydroxybutyl)biphenyl-4-carboxamide] was run?
**A.** 120 nM

**Q.** With `N#Cc1cncc(-c2cccc(C(F)(F)F)c2)c1Nc1cccc2[nH]ccc12` [Compound 310, 4-(1H-indol-4-ylamino)-5-[3-(trifluoromethyl)phenyl]nicotinonitrile] as the molecule, how does the IC50 read?
**A.** 20 nM

**Q.** `N#Cc1cccc(-c2cncc(C#N)c2Nc2cccc3[nH]ccc23)c1` [Compound 311, 5-(3-cyanophenyl)-4-(1H-indol-4-ylamino)nicotinonitrile] was tested. Which IC50 did it give?
**A.** 20 nM

**Q.** `CN(C)C(=O)c1cccc(-c2cncc(C#N)c2Nc2cccc3[nH]ccc23)c1` [Compound 312, 3-[5-cyano-4-(1H-indol-4-ylamino)pyridin-3-yl]-N,N-dimethylbenzamide] was tested. Which IC50 did it give?
**A.** 600 nM

**Q.** `CN(C)S(=O)(=O)c1cccc(-c2cncc(C#N)c2Nc2cccc3[nH]ccc23)c1` [Compound 313, 3-[5-cyano-4-(1H-indol-4-ylamino)pyridin-3-yl]-N,N-dimethylbenzenesulfonamide] was tested. Which IC50 did it give?
**A.** 20 nM

**Q.** With `N#Cc1cncc(-c2cccc(C(N)=O)c2)c1Nc1cccc2[nH]ccc12` [Compound 314, 3-[5-cyano-4-(1H-indol-4-ylamino)pyridin-3-yl]benzamide] as the molecule, how does the IC50 read?
**A.** 100 nM
